From patent US8933099B2, “Monocyclic pyridine derivative” (Eisai R&D Management Co., Ltd., priority 2013, dated 2015) come the findings set out here.

For assay [1], the system named is human endometrial cancer cell line MFE296 xenograft. The experiment in a line: Antitumor effect in MFE296 subcutaneous xenograft model in mice. The assay is classed as in vivo. As to conditions: oral, once a day for 14 days, tumor volume last day. An excerpt: Human endometrial cancer cell line MFE296 (DSMZ Number ACC-419), which had been cultured in an RPMI-1640 medium containing 10% FBS, and penicillin and streptomycin, were adjusted to a concentration of 1×10^8 cells/mL with Hanks' Balanced Salt Solution (GIBCO #24020) to prepare a cell suspension, and the suspension was mixed with […] (BD Biosciences, Cat#354234) in a ratio of 1:1 to prepare a cell suspension in a concentration of 5×10^7 cells/ml. The suspension was inoculated in a volume of 100 μL into a subcutaneous part of a right flank of nude mice, 7 weeks of age (BALB/cAJcl-nu/nu, female, Clea Japan Inc.). Twelve days after cell inoculation, the shortest diameter and the longest diameter of a tumor in each mouse were measured by using an electronic digital caliper (Digimatic™ caliper, Mitutoyo Corporation), so as to calculate the volume of the tumor in accordance with the following calculation formula: Tumor volume(mm^3)=Longest diameter(mm)×Shortest diameter(mm)×Shortest diameter(mm)/2
On the basis of the volumes of tumors obtained on the first day of administration, the nude mice were grouped such that averages of the tumor volumes were substantially equal among the groups. Each test substance was dissolved in DMSO, Tween 80 was added thereto to prepare a solution in a 10-fold concentration and the thus prepared solution was stored at the freezer before use. Immediately before the administration, the stock solution was diluted with a 5% glucose solution to obtain a final administration solution (in which a ratio in % among DMSO, Tween 80 and the 5% glucose solution was 3.5:6.5:90). Each evaluation sample was orally administered to test substance administration group at a volume of 0.4 mL per 20 g of body weight once a day continuously for 14 days, and in a control group, an administration solvent was orally administered under the same conditions. Incidentally, the experiment was conducted on groups each consisting of 5 mice.
With respect to each of the control group and test substance administration group, a ratio of the weight measured on the final day to the weight measured on the first day (relative body weight: RBW) was calculated. If a ratio of the RBW of the test substance administration group/the RBW of the control group is 0.9 or more, the corresponding test substance administration group was defined as a well-tolerated. In the test substance administration group thus defined as well-tolerated, a ratio of the tumor volume of the test substance-dosing group to the tumor volume of the control group obtained on the last day (TIC) (%) was calculated, and shown in Table 27.

The test system of assay [2] is cell line RT112/84 xenograft. The experiment in a line: Antitumor effect in RT112/84 subcutaneous xenograft model in mice. Type of assay: in vivo. The note with it: oral, once a day for 14 days, tumor volume last day. From the text:
Human […] cancer cell line RT112/84 (ECACC Number EC85061106-F0), which had been cultured in an RPMI-1640 medium containing 10% […], and penicillin and streptomycin, were adjusted to a concentration of 1×10^8 cells/mL with Hanks' Balanced Salt Solution (GIBCO 1424020) to prepare a cell suspension, and the suspension was mixed with […] (BD Biosciences, Cat/354234) in a ratio of 1:1 to prepare a cell suspension in a concentration of 5×10^7 cells/ml. The cell suspension was inoculated in a volume of 100 μL into a subcutaneous part of a right flank of nude mice, 7 weeks of age (BALB/cAJcl-nu/nu, female, Clea Japan Inc.). Ten days after cell inoculation, the shortest diameter and the longest diameter of a tumor in each mouse were measured by using an electronic digital caliper (Digimatic™ caliper, Mitutoyo Corporation), so as to calculate the volume of the tumor in accordance with the following calculation formula: Tumor volume(mm^3)=Longest diameter(mm)×Shortest diameter(mm)×Shortest diameter(mm)/2 […]
With respect to each of the control group and test substance administration group, a ratio of the weight measured on the final day to the weight measured on the first day (relative body weight: RBW) was calculated. […]

`CNC(=O)n1ccc2cc(Oc3ccnc(NC(=O)c4ccc(C5CCN(CCO)CC5)cc4)c3)c(OCCOC)cc21` [Example 22, 5-((2-(4-(1-(2-Hydroxyethyl)piperidin-4-yl)benzamide)pyridin-4-yl)oxy)-6-(2-methoxyethoxy)-N-methyl-1H-indole-1-carboxamide]: the “T/C (%)” value in assay [1] (6.25 mg/kg) turned out to be 91%; in assay [1] (12.5 mg/kg), 85%; in assay [1] (25 mg/kg), 60%; in assay [1] (50 mg/kg) it was 54%; in assay [2] (25 mg/kg), 62%; in assay [2] (50 mg/kg), 33%.
